Experimental findings from patent publication US20250376432A1, “PROCESS FOR PREPARING MODULATORS OF EUKARYOTIC INITIATION FACTOR 2B” (Denali Therapeutics Inc., priority 2022, published 2025) are described below.

A short description of series [1]: Dynamic Vapor Sorption (DVS) analysis / hygroscopicity of salt forms. It counts as physicochemical. The following applies: for Hygroscopicity by DVS analysis / Hygroscopicity: DVS at 25° C.; for Hygroscopicity: Table 4. Here is the method: DVS analysis was carried out using a Surface Measurement System DVS Intrinsic analyzer (SMS, UK). The instrument balance was calibrated with standard weights. Approximately 15-20 mg of sample was loaded into a pan for analysis. The sample was analyzed at 25° C. in 10% relative humidity (RH) steps from 50% to 95% RH (adsorption cycle), from 95% to 0% RH (desorption cycle), and from 0% to 50% RH (adsorption cycle). The movement from one step to the next occurred either after satisfying the equilibrium criterion of 0.002% weight change (dm/dt) or, if the equilibrium criterion was not met, after six hours. […]

Series [2] can be described thus: Solid form stability (physical by XRPD, chemical by GC purity) under stress storage. The following applies: for 25° C./60% RH 2-weeks stability, Purity (%) / 40° C./75% RH 2-weeks stability, Purity (%) / 60° C. 2 weeks stability, Purity (%): GC purity; for 60° C. 2 weeks stability, XRPD: about 20 mg in glass weighing bottles. It counts as physicochemical. Here is the method:
Standard XRPD patterns were collected using a Bruker D8 Advance diffractometer (Bruker, GER). The X-ray source is a copper (Cu) tube that was operated at 40 kV and 40 mA. Powder samples were prepared on zero-background silicon (Si) holders using manual light pressure to keep the sample surfaces flat. Each sample was analyzed from 3 to 45° 2θ with an effective step size of 0.02° 2θ and 0.08 s exposure time.
Shimadzu GC-2104 (Shimadzu, Japan) was utilized for chemical purity characterization.
Several salts were further investigated for hygroscopicity, purity, and solid form stability. To determine solid form stability, glass weighing bottles containing about 20 mg samples were kept under (1) 60° C., (2) 25° C./60% RH, and (3) 40° C./75% RH conditions, respectively. After 1 week and 2 weeks, respectively, XRPD and GC analyses were conducted to investigate the physical and chemical stability of the selected forms under corresponding conditions.

Regarding `C1CCC(NC2CCCCC2)CC1.O=C(O)[C@H]1C[C@@H](OC(F)(F)F)C1` [VIa-1a DCHA salt Form A], the “Hygroscopicity by DVS analysis” value in series [1] is on record as “non-hygroscopic”. For the same compound, the “Form conversion after DVS test” value in series [1] (after DVS test) is on record as “no form conversion was detected”.

As to `C1CCC(NC2CCCCC2)CC1.O=C(O)[C@H]1C[C@@H](OC(F)(F)F)C1` [VIa-1a, DCHA salt Form A], the Hygroscopicity entry in series [1] is on record as “non-”. For the same compound, in series [2], the “25° C./60% RH 2-weeks stability, XRPD” value is “No change”; the “25° C./60% RH 2-weeks stability, Purity (%)” value is 99.7%; the “40° C./75% RH 2-weeks stability, XRPD” value is on record as “No change”; the “40° C./75% RH 2-weeks stability, Purity (%)” value is 99.3%. The “60° C. 2 weeks stability, XRPD” value in series [2] is “Sublimed”.

Turning to `N=C(N)NCCC[C@H](N)C(=O)O.O=C(O)[C@H]1C[C@@H](OC(F)(F)F)C1` [VIa-1a, L-Arginine salt Form A], the Hygroscopicity result in series [1] is “hygroscopic”. For the same compound, in series [2], the “25° C./60% RH 2-weeks stability, XRPD” value is given as “No change”; the “25° C./60% RH 2-weeks stability, Purity (%)” value stood at 98.8%; the “40° C./75% RH 2-weeks stability, XRPD” value is recorded as “Deliquesced”; the “60° C. 2 weeks stability, Purity (%)” value was determined as 99.2%. The “60° C. 2 weeks stability, XRPD” value in series [2] was “additional peak”.

Take `N=C(N)NCCC[C@H](N)C(=O)O.O=C(O)[C@H]1C[C@@H](OC(F)(F)F)C1` [VIa-1a, L-arginine salt Form A]: in series [1] (25° C.), the “DVS weight gain at 80% RH” value is listed as “about 28%” and the “DVS weight gain at 95% RH” value is reported as “about 74%”. In addition, in series [1], the “Hygroscopicity by DVS analysis” value is “high hygroscopicity” and the “Deliquescence with high humidity” value is listed as “deliquesced with high humidity”.

Turning to `CC(C)(C)N.O=C(O)[C@H]1C[C@@H](OC(F)(F)F)C1` [VIa-1a, TBA salt Form A], in series [1], the Hygroscopicity entry is “non-”. In addition, in series [2], the “60° C. 2 weeks stability, XRPD” value is reported as “Sublimed^&”.

Take `NC(CO)(CO)CO.O=C(O)[C@H]1C[C@@H](OC(F)(F)F)C1` [VIa-1a, TMA salt Form A]: in series [1] (0% RH, 25° C.), the “DVS weight gain at 0% RH” value was “about 7%”. Also, in series [1] (25° C.), the “DVS weight gain at 80% RH” value is recorded as “about 0.1%” and the “DVS weight gain at 95% RH” value was “about 47%”. In series [1], the “Hygroscopicity by DVS analysis” value was “non-hygroscopic”, the Hygroscopicity entry is recorded as “non-” and the “Deliquescence with high humidity” value was “may deliquesce with high humidity (>90% RH)”. Besides, in series [2], the “25° C./60% RH 2-weeks stability, XRPD” value is “No change”; the “25° C./60% RH 2-weeks stability, Purity (%)” value is 99.4%; the “40° C./75% RH 2-weeks stability, XRPD” value is on record as “No change”; the “40° C./75% RH 2-weeks stability, Purity (%)” value was found to be 99.3%. Further, in series [2], the “60° C. 2 weeks stability, Purity (%)” value is recorded as 99.3% and the “60° C. 2 weeks stability, XRPD” value is listed as “No change”.
